Results taken from PMC9781827, “Isolation and Identification of Anti-Inflammatory Peptide from Goose Blood Hydrolysate to Ameliorate LPS-Mediated Inflammation and Oxidative Stress in RAW264.7 Macrophages” (Molecules, 2022).

Tests used:
[1] = system: TLR4, CD14, MD-2, MyD88, p-NF-kB/NF-kB, IKKβ; assay: Western blot of TLR4, CD14, MD-2, MyD88, p-NF-kB/NF-kB, IKKβ in RAW264.7 macrophages; type: cell-based; conditions: LPS group vs CTRL group, p < 0.05
Procedure: RAW264.7 macrophages were washed with cold PBS and homogenized with two small magnetic beads (2 mm) and 10× volume of RIPA buffer containing 1% protease inhibitors for 60 s. Then the supernatant was collected after centrifuging at 12,000× g for 10 min at 4 °C, which was the total protein solution. The concentration of protein in the total protein solution was measured by BCA kits. The protein concentration of the supernatant was diluted to 2.0 mg/mL and mixed with an equal volume of buffer (0.25 mol/L Tris-HCl buffer, pH 6.8, containing 4% SDS and 20% glycerol with 20 mmol/L 2-mercaptoethanol). The stacking gel and separating gel were made of 5% (w/v) and 10% (w/v) polyacrylamide, respectively. Electrophoresis was carried out at 80 V until the dye front reached the bottom of the stacking gel, and the gel was run at 120 V until the dye front reached the bottom of the separating gel (165-8001, Bio-Rad Mini-PROTEAN Tetra Electrophoresis System). The PVDF membrane was covered on the gel and transferred membrane at 300 mA for 30 min. The membrane was moved into a decolorization shaker with 5% skim milk (0.5% TBST) and blocked for 1 h at room temperature. […] The film was scanned and archived, processed and decolorized by Photoshop, and the optical density value of the target band was analysed by ImageJ software processing system.

SOD = SOD activity in LPS-mediated RAW264.7 macrophages; type: cell-based; conditions: LPS alone; mean ± S.D., n = 3
Procedure: The culture medium was collected and centrifuged at 3000× g for 10 min. Then, the inflammatory cytokines levels of TNF-α (MB-50051A), IL-1β (MB-50064B) and IL-6 (MB-50054A) in the culture medium were determined with ELISA kits (Jiangsu Enzyme marker Biotechnology Co., Ltd., Yancheng, China). […] (7) Add 50 μL of stop solution to each well, and measure its absorbance value at 450 nm wavelength. The activities of SOD, GSH-Px and the levels of ROS and Nitric oxide (NO) in macrophages were determined with spectrophotometric kits. […] The absorbance value of miscible liquid was measured at 450 nm wavelength by a multifunctional microplate reader; GSH-Px: 0.2 mL of sample was mixed with 0.2 mL GSH-Px (1 mmol/L) and performed at 37 °C for 5 min. […] The absorbance value was measured at 412 nm wavelength by a multifunctional microplate reader; ROS: DCFH-DA probe was added directly to serum-free medium: DCFH-DA was generally diluted with serum-free medium at a final concentration of 10 µM at 1:1000. […] In general, obvious green fluorescence can be observed in positive control cells after 20 min of stimulation. […] It can also be detected according to FITC fluorescence detection conditions. The results were expressed as fluorescence values.

lipopolysaccharide [LPS]
protein expression levels of TLR4, CD14, MD2, MyD88, p-NF-kB, NF-kB and IKKβ [1]: elevated | level of SOD (SOD): 24.43 ± 1.41 U/mg prot
